Data published in patent publication US11040952B2, “Phthalazinone compound, method for preparation thereof, pharmaceutical composition thereof, and use thereof” (SHANGHAI INSTITUTE OF MATERIA MEDICA, CHINESE ACADEMY OF …, priority 2017, dated 2021).

Columns and labels:
HBV = HBV DNA content in the supernatant of cell culture (real-time PCR); format: cell-based, hepatitis B virus (HBV); conditions: Hepatitis B virus, HepG2.2.15, 192 h, inhibition of HBV DNA replication, HepG2.2.15 supernatant, 8 days
Procedure: (§1) Human hepatoblastoma cell line HepG2.2.15 stably transfected with full-length HBV (provided by Shanghai Institute of Materia Medica, Chinese Academy of Sciences)
(§2) HepG2.2.15 cells were cultured and passaged according to conventional methods. DMEM containing 10% (v/v) bovine serum and the selective antibiotic G418 was used as a medium, the cells were cultured in an incubator at 37° C. under 5% CO2 for 8 days (the medium was exchanged on the 4th day).
(§3) The test compounds were formulated with DMSO into a 40 mM stock solution, which was then prepared into a solution at the defined highest concentration using a DMEM medium containing 10% Hyclone™ Fetal Bovine Serum, followed by diluting the same; the positive drug was lamivudine, which was also prepared into a solution at the defined concentration with the DMEM medium containing 10% Hyclone™ Fetal Bovine Serum.
HepG2.2.15 cells were treated with compounds at different concentrations for 8 days (the medium was exchanged on the 4th day), and the supernatant was aspirated, and the HBV DNA contained in the mature virus particles in the supernatant was quantitated by using a real-time PCR method.
1) The supernatant DNA from a 96-well plate, 200 μl/well, was collected, wherein the contents in the duplicate wells were collected into a same EP tube, and centrifuged at 4000 rcf for 5 min, and the supernatant was collected;
2) 200 μl of the supernatant was added into a 1.5 ml EP tube, added with 20 μl of proteinase K and 200 μl of Buffer AL (Qiagen, DNeasy® Blood & Tissue Kit), vortexed to be mixed thoroughly, and incubated at 56° C. for 10 min;
3) 200 μl of ethanol was added and vortexed to be mixed thoroughly;
4) all the liquid obtained from step 3) was added into a DNeasy Mini spin column (Qiagen, DNeasy® Blood & Tissue Kit) placed in a 2 ml waste liquid collection tube, and centrifuged at 6000 rcf for 1 min, and the supernatant was discarded;
5) the DNeasy Mini spin column was placed in a new 2 ml waste liquid collection tube, added with 500 μl of Buffer AW1 (Qiagen, DNeasy® Blood & Tissue Kit), and centrifuged at 6000 rcf for 1 min, and the supernatant was discarded;
6) the DNeasy Mini spin column was placed in a new 2 ml waste liquid collection tube, added with 500 μl of Buffer AW2, (Qiagen, DNeasy® Blood & Tissue Kit), and centrifuged at 20000 rcf for 3 min, and the supernatant was discarded;
7) the DNeasy Mini spin column was placed in anew 1.5 ml EP tube, 50 μl of Buffer AE (Qiagen, DNeasy® Blood & Tissue Kit) was pipetted and directly applied onto the membrane of the DNeasy Mini spin column, which was then left at room temperature for 5 min, and centrifuged at 6000 rcf for 1 min to elute the DNA from the membrane, the DNeasy Mini spin column was discarded, and the DNA sample was collected and stored at −20° C.
1) Standard curve: 1e^7-1e^4 IU/ml, the sample amount was 1 μl, a blank well was set so as to check whether the reaction system is polluted or not;
2) 1 μl of a DNA sample was added in sequence;
3) Addition of enzyme and reaction buffer: two tubes of the reaction solution were first added into the enzyme, mixed well and centrifuged slightly, placed on ice, added with the sample, followed by addition of 19 μl of the enzyme reaction solution, wherein, during the addition, the DNA sample should be sure of not being touched to cause contamination;
4) the sample was sealed with a sealing film and centrifuged;
Stage 2: 10 cycles • Step 1: 93° C., 45 s • Step 2: 55° C., 1 min Stage 3: 45 cycles • Step 1: 93° C., 30 s • Step 2: 55° C., 45 s
Detection: data were collected after completing the step 2 (55° C., 45 s) of the stage 3.
The experimental data were processed by using the Origin software and IC50 was calculated.

[1] = MTT assay for cytotoxicity; format: cell-based, Human; conditions: human, HepG2.2.15 cells, half (50%) lethal concentration
Procedure: as §1, §2, §3
HepG2.2.15 cells were seeded at 5×10^3 cells/well in a 96-well plate, and cultured for eight days in the presence of the compounds according to the above method, and then 200 μl of the supernatant was taken out, followed by addition of the MTT solution. After 4 hours of culture, a lysate was added. After 12 hours of culture, the OD570 was measured on a microplate reader. By comparing with the absorbance of the control well, the percentage of viable cells was calculated, and CC50, the concentration required for the reduction of cell viability by 50%, was calculated.

| SMILES | IC50 (HBV) [nM] | CC50 at 8 days [1] [nM] |
| --- | --- | --- |
| CNc1ccc(-c2nn(Cc3ccc(C#N)cc3)c(=O)c3ccccc23)c(F)n1 [IV-8] | 900 | > 100000 |
| N#Cc1ccc(Cn2nc(-c3cc(Cl)c(NCC(O)CO)nc3F)c3ccccc3c2=O)cc1 (stereo not drawn) [IV-80] | < 98 | > 100000 |
| COc1cc2c(-c3ccc(C)nc3F)nn(Cc3ccc(Cl)cc3)c(=O)c2cc1OC [Compound V-6] | 2600 | > 100000 |
| COc1ccc2c(=O)n(Cc3ccc(Cl)cc3)nc(-c3ccc(C)nc3F)c2c1 [Compound V-5] | 3700 | > 100000 |
| N#Cc1ccc(Cn2nc(-c3ccc(N)nc3C#N)c3ccccc3c2=O)cc1 [IV-7] | 800 | > 100000 |
| CCOCCNc1nc(F)c(-c2nn(Cc3ccc(C#N)cc3)c(=O)c3ccccc23)cc1Cl [IV-42] | 292 | 29800 |
| O=c1c2ccccc2c(-c2ccc(NCC3CCOCC3)nc2F)nn1Cc1ccc(Cl)cc1 [Compound I-30] | 400 | > 100000 |
| N#Cc1ccc(Cn2nc(-c3cc(Cl)cnc3F)c3ccccc3c2=O)c(Cl)c1 [Compound I-41] | 108 | 46600 |
| CN(C)CCNc1ccc(-c2nn(Cc3ccc(C#N)cc3)c(=O)c3ccccc23)c(F)n1 [IV-14] | 1500 | > 100000 |
| N#Cc1ccc(Cn2nc(-c3ccc(NCCCCO)nc3F)c3ccccc3c2=O)cc1 [IV-68] | 332 | > 100000 |
| N#Cc1ncc(-c2nn(Cc3ccc(Cl)cc3)c(=O)c3ccccc23)cn1 [II-2] | 4500 | 32400 |
| O=c1c2ccccc2c(-c2cccnc2Cl)nn1Cc1ccc(Cl)cc1 [Compound I-6] | 1700 | > 100000 |
| [2H]C([2H])(c1ccc(Cl)cc1)n1nc(-c2ccc(C)nc2F)c2ccccc2c1=O [Compound I-25] | 1300 | > 100000 |
| O=c1c2ccccc2c(-c2ccc(CO)nc2F)nn1Cc1ccc(Cl)cc1 [Compound I-22] | 400 | > 100000 |
| COCc1ccc(-c2nn(Cc3ccc(Cl)cc3)c(=O)c3ccccc23)c(F)n1 [Compound I-32] | 1000 | > 100000 |
| Cc1ccc(-c2nn(Cc3ccc(C#N)cc3)c(=O)c3cc(C)c(C)cc23)c(F)n1 [Compound V-11] | 1200 | > 100000 |
| O=c1c2ccccc2c(-c2ccc(NC3COC3)nc2F)nn1Cc1ccc(Cl)cc1 [Compound I-17] | 1600 | > 100000 |
| N#Cc1ccc(Cn2nc(-c3cc(Cl)cnc3F)c3ccccc3c2=O)c(F)c1 [Compound I-42] | 378 | 33500 |
| CCOCCOCCNc1ccc(-c2nn(Cc3ccc(C#N)cc3)c(=O)c3ccccc23)c(F)n1 [IV-56] | 214 | > 100000 |
| COC(=O)CCNc1nc(F)c(-c2nn(Cc3ccc(C#N)cc3)c(=O)c3ccccc23)cc1Cl [IV-73] | 215 | > 100000 |
| CCOC(=O)CCCNc1nc(F)c(-c2nn(Cc3ccc(C#N)cc3)c(=O)c3ccccc23)cc1Cl [IV-36] | 482 | > 100000 |
| Cc1cnc(-c2nn(Cc3ccc(Cl)cc3)c(=O)c3ccccc23)cn1 [III-1] | 6200 | 87800 |
| N#Cc1ccc(Cn2nc(-c3cc(Cl)c(NCCCO)nc3F)c3ccccc3c2=O)cc1 [IV-67] | 4.2 | > 100000 |
| Cc1cnc(F)c(-c2nn(Cc3ccc(C#N)cc3)c(=O)c3ccccc23)c1 [Compound I-44] | 294 | 31500 |
| CC(=O)Nc1ccc(-c2nn(Cc3ccc(C#N)cc3)c(=O)c3ccccc23)c(F)n1 [IV-10] | 1700 | 47900 |
| Cc1ccc(-c2nn(Cc3ccc(Cl)cc3)c(=O)c3ccc(F)cc23)c(F)n1 [Compound V-1] | 700 | > 100000 |
| Cc1ccc(-c2nn(Cc3ccc(C#N)cc3)c(=O)c3cc(F)c(F)cc23)c(F)n1 [Compound V-10] | 700 | 47900 |
